For the assay, the target named is T1, EGFR (ErbB1) T790M (Homo sapiens, UniProt P00533, T790M).
T1 construct: purchased Thermo Fisher Scientific (Life Technologies) SelectScreen
In words: SelectScreen Z'LYTE. Format: biochemical. The gist of the method: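 SelectScreen broad panel; activity (Z'LYTE, Adapta) plus binding formats. ATP: Km app for CSF1R Z'LYTE; 10 for CAMK1 Adapta. Readout = % per kinase.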

T1 sequence (P00533 25-1210 T790M): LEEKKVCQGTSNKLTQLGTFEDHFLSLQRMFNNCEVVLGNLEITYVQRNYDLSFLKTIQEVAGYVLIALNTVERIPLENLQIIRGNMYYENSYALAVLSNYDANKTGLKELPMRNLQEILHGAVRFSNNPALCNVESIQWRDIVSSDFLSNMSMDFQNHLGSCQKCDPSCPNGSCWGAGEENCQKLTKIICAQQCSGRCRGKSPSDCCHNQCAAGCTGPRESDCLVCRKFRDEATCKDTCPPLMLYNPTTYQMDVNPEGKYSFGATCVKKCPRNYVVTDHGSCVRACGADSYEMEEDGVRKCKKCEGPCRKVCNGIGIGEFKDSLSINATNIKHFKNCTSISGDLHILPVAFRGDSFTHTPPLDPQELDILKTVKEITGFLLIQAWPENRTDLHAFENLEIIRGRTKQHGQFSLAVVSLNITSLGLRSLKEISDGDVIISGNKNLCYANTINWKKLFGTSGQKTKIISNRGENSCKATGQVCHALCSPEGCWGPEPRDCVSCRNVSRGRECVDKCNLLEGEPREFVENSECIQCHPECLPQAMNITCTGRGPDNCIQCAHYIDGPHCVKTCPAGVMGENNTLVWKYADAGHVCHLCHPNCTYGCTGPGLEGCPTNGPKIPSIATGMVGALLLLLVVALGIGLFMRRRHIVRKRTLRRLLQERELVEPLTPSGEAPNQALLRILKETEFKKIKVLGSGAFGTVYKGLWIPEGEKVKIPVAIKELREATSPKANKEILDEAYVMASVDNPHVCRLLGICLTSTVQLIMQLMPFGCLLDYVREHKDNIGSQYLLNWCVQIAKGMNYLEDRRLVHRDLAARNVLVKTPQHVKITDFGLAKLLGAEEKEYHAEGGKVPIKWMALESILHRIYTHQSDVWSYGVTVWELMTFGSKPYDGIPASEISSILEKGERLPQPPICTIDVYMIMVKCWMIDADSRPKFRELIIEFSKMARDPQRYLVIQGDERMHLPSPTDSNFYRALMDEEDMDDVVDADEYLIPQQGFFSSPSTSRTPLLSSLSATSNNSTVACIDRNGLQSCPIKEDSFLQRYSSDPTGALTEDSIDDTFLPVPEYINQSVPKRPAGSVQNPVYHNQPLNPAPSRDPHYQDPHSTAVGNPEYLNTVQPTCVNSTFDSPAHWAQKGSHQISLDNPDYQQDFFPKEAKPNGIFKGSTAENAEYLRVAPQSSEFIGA

The term inhibition denotes the relative decrease from the control value, in per cent. In the case of `CN(C(=O)CN1CCOCC1)c1ccc2sc3c(-c4cccc5c(=O)cc(N6CC7CCC(C6)O7)oc45)cccc3c2c1` [NU5455], the inhibition at 1 µM is -3.3%.

These data come from PMC6934184, “Selective DNA-PKcs inhibition extends the therapeutic index of localized radiotherapy and chemotherapy” (The Journal of Clinical Investigation, 2019).
